Test results as given in patent US20100055192A1, “MICRONIZED PARTICLES OF LOW-DOSAGE STRENGTH ACTIVE AGENTS FOR POWDER FORMULATIONS FOR INHALATION” (Chiesi Farmaceutici S.p.A., priority 2007, published 2010).
Where a name gives a salt, the structure may show the parent alone.

Tests used:
Assay type in all cases: physicochemical
[1] = Particle size distribution by laser diffraction (Malvern apparatus); settings: for Particle size d (v, 0.05): volume diameter of 5% of the particles; for Particle size d (v, 0.1): volume diameter of 10% of the particles; for Particle size d (v, 0.5): volume diameter of 50% of the particles; for Particle size d (v, 0.9): volume diameter of 90% of the particles
Protocol: (§1) The particle size was determined by laser diffraction using a Malvern apparatus. The parameters taken into consideration were the VD in microns of 5%, 10%, 50%, and 90% of the particles expressed as d(v,0.05), d(v,0.1), d(v, 0.5), and d(v, 0.9), respectively, which correspond to the mass diameter assuming a size independent density for the particles. The Specific Surface Area (SSA) was determined by BET nitrogen adsorption using a Coulter SA3100 apparatus as a mean of three determinations.
(§2) Different batches of formoterol fumarate dihydrate were milled in a jet mill apparatus at different operating conditions in order to obtain different particle size distribution. The micronized batches were characterised in terms of particle size distribution and Specific Surface Area as reported in Example 1.

[2] = Specific Surface Area by BET nitrogen adsorption (Coulter SA3100); settings: mean of three determinations
Protocol: as §1, §2

[3] = Agglomerates after mixing with a carrier of coarser particles, detected by Near Infrared Spectrophotometer with microscope; settings: batch added to carrier of coarser particles; suitable time of mixing, or ten hours of mixing where agglomerates remained
Protocol: (§3) The various batches were then added to a carrier made of coarser particles.
as §3

## COc1ccc(C[C@@H](C)NC[C@H](O)c2ccc(O)c3[nH]c(=O)ccc23)cc1 [carmoterol hydrochloride batch 1]
[1]
  Particle size d (v, 0.05): 0.70 μm
  Particle size d (v, 0.1): 0.94 μm
  Particle size d (v, 0.5): 2.16 μm
  Particle size d (v, 0.9): 4.34 μm
[2]
  SSA (Specific Surface Area): 9.70 m^2/g
[3]
  Agglomerates of the active ingredient in the formulation after mixing: no agglomerates were observed

## COc1ccc(C[C@@H](C)NC[C@H](O)c2ccc(O)c3[nH]c(=O)ccc23)cc1 [carmoterol hydrochloride batch 2]
[1]
  Particle size d (v, 0.05): 0.67 μm
  Particle size d (v, 0.1): 0.85 μm
  Particle size d (v, 0.5): 2.03 μm
  Particle size d (v, 0.9): 4.31 μm
[2]
  SSA (Specific Surface Area): 9.68 m^2/g
[3]
  Agglomerates of the active ingredient in the formulation after mixing: no agglomerates were observed

## COc1ccc(C[C@@H](C)NC[C@H](O)c2ccc(O)c3[nH]c(=O)ccc23)cc1 [carmoterol hydrochloride batch 3]
[1]
  Particle size d (v, 0.05): 0.58 μm
  Particle size d (v, 0.1): 0.59 μm
  Particle size d (v, 0.5): 1.32 μm
  Particle size d (v, 0.9): 2.75 μm
[2]
  SSA (Specific Surface Area): 18.11 m^2/g
[3]
  Agglomerates of the active ingredient in the formulation after mixing: agglomerates where still present

## COc1ccc(C[C@@H](C)NC[C@H](O)c2ccc(O)c3[nH]c(=O)ccc23)cc1 [carmoterol hydrochloride batch 4]
[1]
  Particle size d (v, 0.05): 0.55 μm
  Particle size d (v, 0.1): 0.68 μm
  Particle size d (v, 0.5): 1.58 μm
  Particle size d (v, 0.9): 3.40 μm
[2]
  SSA (Specific Surface Area): 10.74 m^2/g
[3]
  Agglomerates of the active ingredient in the formulation after mixing: agglomerates where still present

## COc1ccc(C[C@@H](C)NC[C@H](O)c2ccc(O)c3[nH]c(=O)ccc23)cc1 [carmoterol hydrochloride batch 5]
[1]
  Particle size d (v, 0.05): 0.48 μm
  Particle size d (v, 0.1): 0.70 μm
  Particle size d (v, 0.5): 1.45 μm
  Particle size d (v, 0.9): 2.75 μm
[2]
  SSA (Specific Surface Area): 11.91 m^2/g
[3]
  Agglomerates of the active ingredient in the formulation after mixing: agglomerates where still present

## COc1ccc(C[C@@H](C)NC[C@H](O)c2ccc(O)c3[nH]c(=O)ccc23)cc1 [carmoterol hydrochloride batch 6]
[1]
  Particle size d (v, 0.05): 0.59 μm
  Particle size d (v, 0.1): 0.73 μm
  Particle size d (v, 0.5): 1.61 μm
  Particle size d (v, 0.9): 3.25 μm
[2]
  SSA (Specific Surface Area): 11.80 m^2/g
